In this experiment the test system is imDAPs. Description: imDAP maturation, cell morphology and adhesion (bright-field). Format: cell-based, human. The conditions noted are these: 10 μM Y27632; coating 1 μg/cm^2 for each; day 7. As to the method:
were produced according to the method described in CN201910169525.0, and expanded as described in Example 10. The expanded […] were seeded on VTN-coated (1 μg/cm^2) plates at a density of 5×10^5 cells/cm^2 (Day 0), and cultured in the maturation medium ([…]) supplemented with 1 μM IWR1. MM-P used in Example 11 contained the following components: NeurobasalTM medium, 1% (v/v) Glutamax, 0.5 mM Db-cAMP sodium salt, 200 μM ascorbic acid, 20 ng/ml BDNF, 20 ng/ml GDNF, 1 ng/ml TGF-β3, 10 μM DAPT, hPLT (0.5%, 1%, 2%). MM-H used in Example 11 contained the following components: NeurobasalTM medium, 1% (v/v) Glutamax, 0.5 mM Db-cAMP sodium salt, 200 μM ascorbic acid, 20 ng/ml BDNF, 20 ng/ml GDNF, 1 ng/ml TGF-β3, […], HhPLT (0.5%, 1%, 2%). MM-B used in Example 11 contained the following components: Neurobasal, 1% (v/v) Glutamax, 0.5 mM Db-cAMP sodium salt, 200 μM ascorbic acid, 20 ng/ml BDNF, 20 ng/ml GDNF, 1 ng/ml TGF-β 3, 10 μM DAPT, 2% (v/v) B27 (50×) (as control). The above HhPLT was produced from hPLT as follows. The hPLT was centrifuged at 3000 g for 30 min at 4° C. to obtain the supernatant, which was heated to 56° C. for 30 min. […] Cells were collected and counted by Vi-cell cytometer. The cells were analyzed by RT-qPCR for EN1, LMX1A, FOXA2, NURR1, SOX6 and TH gene expression. […]

The values that follow come from patent US20240327787A1, “CULTURE MEDIUM, COATING MATRIX AND METHOD FOR EXPANDING MIDBRAIN DOPAMINERGIC PROGENITOR CELLS” (NUWACELL BIOTECHNOLOGIES CO., LTD., priority 2022, published 2024).

Structures can show the parent of a compound that is named as a salt.

For the compound `C[C@@H](N)[C@H]1CC[C@H](C(=O)Nc2ccncc2)CC1` [Y27632, (R)-(+)-trans-4-(1-aminoethyl)-N-(4-pyridyl) cyclohexanecarboxamide dihydrochloride], the “cell adhesion and growth in maturation media supplemented with Y27632 (FIG. 8A)” value was “could promote cell adhesion at a certain degree”.
